Data reported in patent US9777301B2, “Method for producing optically active amine compounds by deracemization” (INDUSTRY-ACADEMIC COOPERATION FOUNDATION, YONSEI UNIVERSITY, priority 2012, dated 2017).
Entries after “also recorded” stand apart in the source; their conditions may differ. Marks after values point to notes of the source that are not given here.

Experiments:
[1] = test system: (S)-selective ω-transaminase derived from O. anthropi; assay: Substrate specificity of ω-transaminase toward 11 racemic amines (initial rate, relative reactivity); assay type: biochemical, Ochrobactrum anthropi; details: for Relative reactivity (%): PLP 0.1 mM, 10 min, activity toward α-methylbenzylamine defined as 100%; for Activity toward (S)-1-aminoindane relative to (S)-α-methylbenzylamine: (S)-enantiomer compared with (S)-α-methylbenzylamine, value in parentheses in Table 13
Experimental: An investigation was made as to the substrate specificities of the (S)-selective ω-transaminase derived from O. anthropi, which was purified in Example 7, toward 11 amines: α-methylbenzylamine 1a, 4-fluoro-α-methylbenzylamine 1b, α-ethylbenzylamine 1c, 1-methyl-3-phenylpropylamine 1d, 1-aminoindane 1e, sec-butylamine 1f, cyclopropylethylamine 1g, 2-aminopentane 1h, 2-aminooctane 1i, 1-methoxy-2-propylamine 1j, and alaninol 1k. 0.125 U/ml of the (S)-selective transaminase derived from O. anthropi was added to each racemic amine (10 mM), pyruvate (10 mM), PLP (0.1 mM), and phosphate buffer (50 mM, pH 7.5) at 37° C. After the mixture was allowed to react for 10 min, the amount of L-alanine produced was measured via GITC derivatization. All activities were measured in the initial reaction rate range of ≦5% conversion. The initial reaction rate for α-methylbenzylamine was measured to be 0.033 mM/min. When the activity of the ω-transaminase toward α-methylbenzylamine was defined as 100%, the activities of the ω-transaminase toward 4-fluoro-α-methylbenzylamine 1b, α-ethylbenzylamine 1c, 1-methyl-3-phenylpropylamine 1d, and 1-aminoindane 1e as arylalkylamines were 91%, 18%, 70%, and 64%, respectively. The activity of the ω-transaminase toward (S)-1-aminoindane was 153% of that toward (S)-α-methylbenzylamine. The activities of the ω-transaminase toward sec-butylamine 1f, cyclopropylethylamine 1g, 2-aminopentane 1h, 2-aminooctane 1i, 1-methoxy-2-propylamine 1j, and alaninol 1k as alkylamines were 54%, 63%, 29%, 146%, 60%, and 63%, respectively.

[2] = test system: (S)-selective ω-transaminase derived from O. anthropi; assay type: biochemical, Ochrobactrum anthropi; details: for Activity of (S)-selective ω-transaminase toward amine (in words): Table 10, speaks of the (S)-selective ω-transaminase without naming O. anthropi or P. denitrificans; for L-alanine (mM) O. anthropi: amine 20 mM (40 mM racemic sec-butylamine), pyruvate as acceptor, 50 mM potassium phosphate pH 7, 37° C., 10 min
Experimental: (§1) The substrate specificity of the (S)-selective ω-transaminase was confirmed in each amine (20 mM), (S)-amine (20 mM, in 40 mM racemic sec-butylamine) and potassium phosphate (50 mM, pH 7). After the reactions were carried out at 37° C. for 10 min, the amounts of L-alanine produced were measured.

[3] = test system: (S)-selective ω-transaminase derived from P. denitrificans; assay: Substrate specificity of (S)-selective ω-transaminase toward amines (L-alanine from pyruvate); assay type: biochemical, Paracoccus denitrificans; details: amine 20 mM (40 mM racemic sec-butylamine), pyruvate as acceptor, 50 mM potassium phosphate pH 7, 37° C., 10 min
Experimental: as §1

[4] = test system: D-amino acid transaminase; assay: Substrate specificity of purified D-amino acid transaminase toward keto acids (amino acceptors); assay type: biochemical, Bacillus sphaericus; details: for Pyruvate (mM) generated: D-alanine 20 mM as amino donor; for Activity of D-amino acid transaminase toward amino acceptor (in words): Tables 7 and 8
Experimental: Each of amino acceptors shown in Tables 7 and 8 and D-alanine or D-homoalanine as substrates were allowed to react with the D-amino acid transaminase purified in Example 7. Specifically, each amino acceptor (20 mM), D-alanine or D-homoalanine (20 mM), and potassium phosphate (50 mM, pH 7) were allowed to react with 0.1 U/ml of the D-amino acid transaminase at 37° C. for 10 min, and the amount of a keto acid (pyruvate or 2-oxobutyrate) generated was measured.

[5] = test system: (S)-selective ω-transaminase derived from O. anthropi; assay: Substrate specificity of (S)-selective ω-transaminase toward keto acids; assay type: biochemical, Ochrobactrum anthropi; details: for Acetophenone (mM) O. anthropi: keto acid 20 mM, (S)-α-methylbenzylamine 20 mM, 50 mM potassium phosphate pH 7, 37° C., 10 min; for Activity of (S)-selective ω-transaminase toward keto acid (in words): Table 9, speaks of the (S)-selective ω-transaminase without naming O. anthropi or P. denitrificans
Experimental: (§2) The substrate specificity of the (S)-selective ω-transaminase was confirmed in each keto acid (20 mM), (S)-α-methylbenzylamine (20 mM) and potassium phosphate (50 mM, pH 7). After the reactions were carried out at 37° C. for 10 min, the amounts of acetophenone produced were measured.

[6] = test system: (S)-selective ω-transaminase derived from P. denitrificans; assay: as above; assay type: biochemical, Paracoccus denitrificans; details: for Acetophenone (mM) P. denitrificans: keto acid 20 mM, (S)-α-methylbenzylamine 20 mM, 50 mM potassium phosphate pH 7, 37° C., 10 min
Experimental: as §2

[7] = test system: D-amino acid transaminase; assay: Effect of L-amino acid concentration on activity of D-amino acid transaminase; assay type: biochemical, Bacillus sphaericus; details: 0-20 mM L-homoalanine in 20 mM D-homoalanine, 20 mM pyruvate, pH 7, 37° C., 10 min; 2-oxobutyrate measured
Experimental: For continuous deracemization of a racemic amino acid with the D-amino acid transaminase purified in Example 7, L-amino acid as a final product should not affect the activity of the D-amino acid transaminase. Deterioration in the activity of the enzyme by the final product makes it difficult to induce continuous reactions. The activities of the D-amino acid transaminase were confirmed at different concentrations (0, 1, 3, 5, 7, 10, 15, and 20 mM) of L-homoalanine in 20 mM D-homoalanine, 20 mM pyruvate, and 50 mM potassium phosphate (pH 7). After the reactions were carried out at 37° C. for 10 min, the amounts of 2-oxobutyrate produced were measured.

[8] = racemic amine 10 mM, pyruvate 10 mM, 0.125 U/ml enzyme, pH 7.5, 37° C.
[9] = amino acceptor 20 mM, 0.1 U/ml enzyme, 50 mM potassium phosphate pH 7, 37° C., 10 min

| SMILES | Relative reactivity (%) [1, 8] | Pyruvate (mM) generated [4, 9] | Acetophenone (mM) O. anthropi [5] | Acetophenone (mM) P. denitrificans [6] | Activity of D-amino acid transaminase toward amino acceptor (in words) [4] | further results |
| --- | --- | --- | --- | --- | --- | --- |
| CC(N)c1ccccc1 (racemic) [Substrate 1a, α-methylbenzylamine] | 100^c % | – | – | – | – | Initial reaction rate ([1]; racemic amine 10 mM, pyruvate 10 mM, 0.125 U/ml enzyme, pH 7.5, 37° C., ≦5% conversion): 0.033 mM/min |
| CC(N)c1ccc(F)cc1 (racemic) [Substrate 1b, 4-fluoro-α-methylbenzylamine] | 91% | – | – | – | – | – |
| CCC(N)c1ccccc1 (racemic) [Substrate 1c, α-ethylbenzylamine] | 18% | – | – | – | – | – |
| CC(N)CCc1ccccc1 (racemic) [Substrate 1d, 1-methyl-3-phenylpropylamine] | 70% | – | – | – | – | – |
| NC1CCc2ccccc21 (racemic) [Substrate 1e, 1-aminoindane] | 64% | – | – | – | – | Activity toward (S)-1-aminoindane relative to (S)-α-methylbenzylamine [1]: 153% |
| CCC(C)N (racemic) [Substrate 1f, sec-butylamine] | 54% | – | – | – | – | Activity of (S)-selective ω-transaminase toward amine (in words) [2]: have activity; L-alanine (mM) O. anthropi [2]: 0.164 ± 0.019 mM; L-alanine (mM) P. denitrificans [3]: 0.000 ± 0.000 mM |
| CCCC(C)N (racemic) [Substrate 1h, 2-aminopentane] | 29% | – | – | – | – | – |
| CCCCCCC(C)N (racemic) [Substrate 1i, 2-aminooctane] | 146% | – | – | – | – | – |
| COCC(C)N (racemic) [Substrate 1j, 1-methoxy-2-propylamine] | 60% | – | – | – | – | – |
| O=C(O)C(=O)C12CC3CC(CC(O)(C3)C1)C2 [2-(3-Hydroxy-1-adamantyl)-oxoethanoate] | – | 0.000 mM | -0.002 mM | -0.004 mM | – | – |
| CCCCC(=O)C(=O)O [2-Ketohexanoate] | – | 0.531 mM | 0.006 mM | 0.713 mM | have activity | Activity of (S)-selective ω-transaminase toward keto acid (in words) [5]: have activity |
| CCC(=O)C(=O)O [2-Oxobutyrate] | – | 1.375 mM | 0.173 mM | 0.821 mM | have activity | Activity of (S)-selective ω-transaminase toward keto acid (in words) [5]: have activity |
| CCCC(=O)C(=O)O [2-Oxopentanoate] | – | 0.882 mM | 0.078 mM | 1.032 mM | have activity | 2-Oxobutyrate (mM) generated ([4]; amino acceptor 20 mM, D-homoalanine 20 mM as amino donor, 0.1 U/ml enzyme, 50 mM potassium phosphate pH 7, 37° C., 10 min): 0.651 mM; Activity of (S)-selective ω-transaminase toward keto acid (in words) [5]: have activity |
| CC(C)C(=O)C(=O)O [3-Methyl-2-oxobutyrate] | – | 0.014 mM | -0.001 mM | -0.002 mM | have activity | – |
| CCC(C)C(=O)C(=O)O (stereo not drawn) [3-Methyl-2-oxopentanoate] | – | – | 0.001 mM | -0.004 mM | – | – |
| CC(C)CC(=O)C(=O)O [4-Methyl-2-oxopentanoate] | – | 0.073 mM | 0.005 mM | 0.175 mM | have activity | Activity of (S)-selective ω-transaminase toward keto acid (in words) ([6]; Table 9, marked (P. denitrificans)): have activity |
| N[C@H]1CCc2ccccc21 [(S)-1-aminoindane] | – | – | – | – | – | Activity toward (S)-1-aminoindane relative to (S)-α-methylbenzylamine [1]: 153% |
| C[C@H](N)c1ccccc1 [(S)-α-methylbenzylamine] | – | – | – | – | – | Activity of (S)-selective ω-transaminase toward amine (in words) [2]: have activity; L-alanine (mM) O. anthropi [2]: 0.715 ± 0.082 mM; L-alanine (mM) P. denitrificans [3]: 0.451 ± 0.077 mM |
| O=C(O)C(=O)CF [Fluoropyruvate] | – | 0.053 mM | 0.554 mM | 0.339 mM | have activity | Activity of (S)-selective ω-transaminase toward keto acid (in words) [5]: have activity |
| O=CC(=O)O [Glyoxylate] | – | – | 1.733 mM | 1.076 mM | – | Activity of (S)-selective ω-transaminase toward keto acid (in words) [5]: have activity |
| CC(C)N [Isopropylamine] | – | – | – | – | – | Activity of (S)-selective ω-transaminase toward amine (in words) [2]: have activity; L-alanine (mM) O. anthropi [2]: 0.309 ± 0.050 mM; L-alanine (mM) P. denitrificans [3]: 0.033 ± 0.002 mM |
| CC[C@H](N)C(=O)O [L-homoalanine] | – | – | – | – | – | Effect of L-amino acid on activity of D-amino acid transaminase (FIG. 1) [7]: did not lose its activity |
| O=C(O)C(=O)CS [Mercaptopyruvate] | – | 0.022 mM | 0.012 mM | 0.008 mM | have activity | – |
| O=CC(=O)Oc1ccccc1 [Phenyl glyoxylate] | – | 0.000 mM | -0.005 mM | -0.008 mM | – | – |
| CC(N)CO (stereo not drawn) [Substrate 1k, alaninol] | 63% | – | – | – | – | – |
| CC(C)(C)C(=O)C(=O)O [Trimethylpyruvate] | – | 0.000 mM | -0.002 mM | -0.004 mM | – | – |
| O=C(O)CCC(=O)C(=O)O [α-Ketoglutarate] | – | 0.971 mM | -0.001 mM | -0.003 mM | have activity; also recorded: had activity | Activity of (S)-selective ω-transaminase toward keto acid (in words) [5]: no activity |
| O=C(O)C(=O)CO [β-Hydroxypyruvate] | – | 0.079 mM | 0.183 mM | 0.066 mM | have activity | Activity of (S)-selective ω-transaminase toward keto acid (in words) [5]: have activity |
